What was measured:
full-length WT STING = biological target: T1, full-length WT STING (Homo sapiens, UniProt Q86WV6, H232R); experiment: 3H-cGAMP filtration binding assay (WT STING); details: competition with tritiated cGAMP ligand; T. ni cell membranes overexpressing full-length WT STING
T1 construct: made in house; host or cells: Trichoplusia ni insect cells, baculovirus generated in Sf21; crude membranes
Experimental: The ability of compounds to bind STING is quantified by their ability to compete with tritiated cGAMP ligand for human STING receptor membrane using a radioactive filter-binding assay. The binding assay employs STING receptor obtained from Trichoplusia ni cell membranes (T. ni; Expression Systems, cat #94-002F, www.expressionsystems.com) overexpressing full-length WT STING and tritiated cGAMP ligand.
The basic WT STING filtration assay protocol is as follows:
16 nM of [^3H] c-GAMP ligand was prepared by diluting into assay buffer, and 50 uL of this working stock was manually added to each well of the assay plate. After ligand addition, 2 uL of either titrated test compound, DMSO control (Sigma #276855), or cold cGAMP control was added to the appropriate wells using a BIOMEK FX. The serially titrated compound was prepared on a Hamilton STARPlus CORE in a 96-well plate (Greiner, #651201) using a 1:3 ten-point dose response format. Following compound addition, a 2.2 ug/ml working concentration of STING membrane (SEQ. ID. No. 3) was prepared by diluting concentrated membrane into assay buffer (1×PBS; Invitrogen #SH30028.02) and douncing 7× using a manual tissue homogenizer (Wheaton, #357546). 148 uL of this prepared membrane was then manually added to each well of a 96-well deep-well polypropylene plate (Fisher Scientific, #12-566-121). Compound, ligand, and membrane then incubated for 60 min at RT before the contents of each assay plate were filtered through a 96-well GF/B filter plate (PerkinElmer, #6005250) using a TOMTEC MACH III Cell Harvester equipped with 20 mM HEPES buffer (Fisher Scientific, #BP299500). The filter plates were then dried at 55° C. for 30 min using a pressurized VWR oven before 30 uL of ULTIMA GOLD F scintillate was added to each well. Tritium levels for each reaction well were then measured using a PerkinElmer TopCount plate reader.
After normalization to controls, the percent activity for each compound concentration was calculated by measuring the amount of remaining radioactivity. The plot of percent activity versus the log of compound concentration was fit with a 4-parameter dose response equation to calculate EC50 values.

full-length HAQ STING = biological target: T2, full-length HAQ STING (Homo sapiens, UniProt Q86WV6, G230A/H232R/R293Q/R71H); experiment: 3H-cGAMP filtration binding assay (HAQ STING); details: competition with tritiated cGAMP ligand; T. ni cell membranes overexpressing full-length HAQ STING
T2 construct: made in house; host or cells: Trichoplusia ni (Hi-Five) insect cells, baculovirus generated in Sf21; crude membranes
T2 sequence (Q86WV6 with tags, fused parts or gaps R71H/G230A/H232R/R293Q): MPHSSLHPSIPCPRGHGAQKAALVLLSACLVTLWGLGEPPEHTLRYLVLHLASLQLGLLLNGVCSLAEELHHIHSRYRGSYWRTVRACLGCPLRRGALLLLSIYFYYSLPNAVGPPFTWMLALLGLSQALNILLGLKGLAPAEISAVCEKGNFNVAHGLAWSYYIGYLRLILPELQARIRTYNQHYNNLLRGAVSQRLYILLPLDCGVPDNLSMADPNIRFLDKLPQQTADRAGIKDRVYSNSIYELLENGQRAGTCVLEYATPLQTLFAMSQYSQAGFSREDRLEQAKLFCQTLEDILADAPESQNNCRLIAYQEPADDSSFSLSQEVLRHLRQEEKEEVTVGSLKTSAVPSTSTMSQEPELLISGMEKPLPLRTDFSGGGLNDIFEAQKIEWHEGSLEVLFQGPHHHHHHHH

[1] = system: IFN-β secretion from THP1 cells; experiment: IFN-β secretion in THP1 cell culture (5 h); assay type: cell-based, human; details: THP1 cells, 5 h incubation, compound at 30 μM, 30 uM cGAMP = 100%; for activation at 30 µM: Homo sapiens, THP-1, 5 h, read-out: % Effect at 30 μM relative to 2′3′-cGAMP
In short: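 THP1 cells at 0.8×10^6/mL were incubated with compounds for 5 h at 37 °C, and secreted IFN-β in the supernatant was measured by AlphaLISA. Percent effect was normalised to 30 uM cGAMP (positive) and 0.3% DMSO (negative) controls. EC50 came from a 4-parameter fit.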

T1 sequence (Q86WV6 with tags, fused parts or gaps H232R): as the sequence (Q86WV6 with tags, fused parts or gaps R71H/G230A/H232R/R293Q) above, with H71R, A230G, Q293R counted along it

EC50 (full-length WT STING) | EC50 (full-length HAQ STING) | SMILES | activation at 30 µM [1] | % Effect at 30 μM relative to 2′3′-cGAMP [1]
1860 nM | 140 nM | Nc1ncnc2c1ncn2[C@@H]1O[C@@H]2CO[P@@](=O)(S)O[C@@H]3[C@H](O)[C@@H](CO[P@](=O)(S)O[C@H]2[C@@H]1F)O[C@H]3n1ccc(=O)n2ccnc12 [Example 3, 8-[(2S,5R,7R,8R,10R,12aR,14R,15S,15aR, 16R)-14-(6-amino-9H-purin-9-yl)-15-fluoro-16-hydroxy-2,10-dioxido-2,10-disulfanyloctahydro-12H-5,8-methanofuro[3,2-l][1,3,6,9,11,2,10]pentaoxadiphosphacyclotetradecin-7-yl]imidazo [1,2-a]pyrimidin-5(8H)-one] | 20% | –
1760 nM | 59 nM | Nc1ncnc2c1nnn2[C@@H]1O[C@@H]2COP(=O)(S)O[C@@H]3[C@H](O)[C@@H](COP(=O)(S)O[C@H]2[C@@H]1F)O[C@H]3n1ccc(=O)n2ccnc12 (stereo partly drawn) [Example 4] | 139% | –
10300 nM | 563 nM | Nc1ncnc2c1ccn2[C@H]1C[C@@H]2O[P@@](=O)(S)OC[C@H]3O[C@@H](n4ccc(=O)n5ccnc45)[C@H](O[P@](=O)(S)OC[C@H]2O1)[C@@H]3O [Example 5, 8-[(2S,5R,7R,8R,10R,12aR,14R,15aS,16R)-14-(4-amino-7H-pyrrolo[2,3-d]pyrimidin-7-yl)-16-hydroxy-2,10-dioxido-2,10-disulfanyloctahydro-12H-5,8-methanofuro[3,2-l][1,3,6,9,11,2,10]pentaoxadiphosphacyclotetradecin-7-yl]imidazo [1,2-a]pyrimidin-5(8H)-one] | 39% | –
1960 nM | 238 nM | Nc1ncnc2c1ncn2[C@@H]1O[C@@H]2CO[P@@](=O)(S)O[C@@H]3[C@H](O)[C@@H](CO[P@@](=O)(S)O[C@H]2[C@@H]1F)O[C@H]3n1ccc(=O)c2nccn21 [Example 13, 5-[(2R,5R,7R,8R,10R,12aR,14R,15S,15aR, 16R)-14-(6-amino-9H-purin-9-yl)-15-fluoro-16-hydroxy-2,10-dioxido-2,10-disulfanyloctahydro-12H-5,8-methanofuro[3,2-l][1,3,6,9,11,2,10]pentaoxadiphosphacyclotetradecin-7-yl]imidazo [1,2-b]pyridazin-8(5H)-one] | 334% | –
902 nM | 208 nM | Nc1ncnc2c1ncn2[C@@H]1O[C@@H]2CO[P@@](=O)(S)O[C@@H]3C[C@@H](CO[P@@](=O)(S)O[C@H]2[C@@H]1F)O[C@H]3n1ccc(=O)n2ccnc12 [Example 19, 8-[(2R,5S,7R,8R,10R,12aR,14R,15S,15aR)-14-(6-amino-9H-purin-9-yl)-15-fluoro-2,10-dioxido-2,10-disulfanyloctahydro-12H-5,8-methanofuro[3,2-l][11,3,6,9,11,2,10]pentaoxadiphosphacyclotetradecin-7-yl]imidazo[1,2-a]pyrimidin-5(8H)-one] | – | 7%
136 nM | 45 nM | O=c1[nH]cnc2c1ncn2[C@@H]1O[C@@H]2CO[P@@](=O)(S)O[C@@H]3C[C@@H](CO[P@@](=O)(S)O[C@H]2[C@@H]1F)O[C@H]3n1ccc(=O)n2ccnc12 [Example 29, 9-[(2R,5S,7R,8R,10R,12aR,14R,15S,15aR)-15-fluoro-2,10-dioxido-7-(5-oxoimidazo[1,2-a]pyrimidin-8(5H)-yl)-2,10-disulfanyloctahydro-12H-5,8-methanofuro[3,2-l][1,3,6,9,11,2,10]pentaoxadiphosphacyclotetradecin-14-yl]-1,9-dihydro-6H-purin-6-one] | 150% | –
124 nM | 2 nM | Nc1nc2c(ncn2[C@@H]2O[C@@H]3CO[P@](=O)(S)O[C@H]4[C@H](F)[C@H](n5ccc6c(=O)[nH]cnc65)O[C@@H]4CO[P@@](=O)(S)O[C@@H]2C3)c(=O)[nH]1 [Example 41, 2-amino-9-[(2R,5S,7R,8R,10R,12aR,14R,15S,15aR)-15-fluoro-2,10-dioxido-14-(4-oxo-3,4-dihydro-7H-pyrrolo[2,3-d]pyrimidin-7-yl)-2,10-disulfanyl-octahydro-12H-5,8-methanofuro[3,2-l] [1,3,6,9,11,2,10]pentaoxadiphosphacyclotetradecin-7-yl]-l,9-dihydro-6H-purin-6-one] | 156% | –
85 nM | 3 nM | Nc1nc2c(nnn2[C@@H]2O[C@@H]3COP(=O)(S)O[C@H]4[C@H](F)[C@H](n5ccc6c(=O)[nH]cnc65)O[C@@H]4COP(=O)(S)O[C@@H]2C3)c(=O)[nH]1 (stereo partly drawn) [Example 45, 5-amino-3-[(5S,7R,8R,12aR,14R,15S, 15aR)-15-fluoro-2,10-dioxido-14-(4-oxo-3,4-dihydro-7H-pyrrolo[2,3-d]pyrimidin-7-yl)-2,10-disulfanyl-octahydro-12H-5,8-methanofuro[3,2-l][1,3,6,9,11,2,10]pentaoxadiphosphacyclotetradecin-7-yl]-3,6-dihydro-7H-[1,2,3]triazolo[4,5-d]pyrimidin-7-one] | 135% | –
205 nM | 2 nM | Nc1nc2c(nnn2[C@@H]2O[C@@H]3COP(=O)(S)O[C@H]4[C@H](F)[C@H](n5ccc6c(=O)[nH]cnc65)O[C@@H]4COP(=O)(S)O[C@@H]2[C@H]3F)c(=O)[nH]1 (stereo partly drawn) [Example 48, 5-amino-3-[(5R,7R,8S,12aR,14R,15S,15aR,16S)-15,16-difluoro-2,10-dioxido-14-(4-oxo-3,4-dihydro-7H-pyrrolo[2,3-d]pyrimidin-7-yl)-2,10-disulfanyl-octahydro-12H-5,8-methanofuro[3,2-l] [1,3,6,9,11,2,10]pentaoxadiphosphacyclotetradecin-7-yl]-3,6-dihydro-7H-[1,2,3]triazolo[4,5-d]pyrimidin-7-one] | 159% | –
